Type in all cases: cell-based
The target of experiment [1] is T1, human S1PR1 (Homo sapiens, UniProt P21453).
T1 construct: host or cells: CHO-K1
Nature of the experiment: Intracellular Ca2+ release (FLIPR) agonist potency, S1P1. The settings on record: recombinant CHO-K1 cells expressing human S1PR1, aequorin, Gq/i5; Calcium 5 FLIPR; read-out: S1P1 EC50. As for the experimental part: (§1) Agonistic activity was measured using the method described below.
(§2) Intracellular Ca^2+ Release
(§3) Agonist potency and intrinsic activity was assessed by measurement of intracellular Ca^2+ release. Recombinant CHO-K1 cells (Euroscreen, Brussels, Belgium) expressing human S1PR5, S1PR1, S1PR3 or S1PR4 receptors, aequorin, and GTP binding protein Gq/i5 were cultured using a medium containing nutrient mixture F-12 Ham (Sigma-Aldrich) with 10% FBS, and 100 μg/mL gentamicin and equilibrated at 5% CO2.
(§4) Phospho-fingolimod was used as positive control. Antagonists were pre-incubated for 10 min with cells before addition of the agonist (phospho-fingolimod at EC80). Measurements were performed using a fluorometric imaging plate reader FLIPR®tetra (Molecular Devices). Agonist at the human S1P receptors were characterized by deducing EC50 (potency) values from a nonlinear fit to the measured fluorescence raw data after normalization to the reference agonist (phospho-fingolimod) curve.

In experiment [2] the target is T2, human S1PR5 (Homo sapiens, UniProt Q9H228).
T2 construct: host or cells: CHO-K1
T2 sequence (Q9H228 whole entry): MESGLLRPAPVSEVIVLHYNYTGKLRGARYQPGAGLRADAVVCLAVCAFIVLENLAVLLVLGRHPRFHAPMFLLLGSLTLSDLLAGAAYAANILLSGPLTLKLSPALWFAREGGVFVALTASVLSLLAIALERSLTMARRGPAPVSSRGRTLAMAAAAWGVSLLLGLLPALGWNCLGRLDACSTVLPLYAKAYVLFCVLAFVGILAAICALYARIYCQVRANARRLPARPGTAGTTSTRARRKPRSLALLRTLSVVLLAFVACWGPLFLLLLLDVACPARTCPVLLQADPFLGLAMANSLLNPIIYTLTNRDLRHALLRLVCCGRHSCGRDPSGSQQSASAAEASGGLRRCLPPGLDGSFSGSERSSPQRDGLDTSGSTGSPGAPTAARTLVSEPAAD
Nature of the experiment: Intracellular Ca2+ release (FLIPR) agonist potency, S1P5. The settings on record: recombinant CHO-K1 cells expressing human S1PR5, aequorin, Gq/i5; Calcium 5 FLIPR; read-out: S1P5 EC50 range. How it is done:
as §1, §2, §3, §4

Experiment [3] addresses T3, human S1PR4 (Homo sapiens, UniProt O95977).
T3 construct: host or cells: CHO-K1
T3 sequence (O95977 1-384): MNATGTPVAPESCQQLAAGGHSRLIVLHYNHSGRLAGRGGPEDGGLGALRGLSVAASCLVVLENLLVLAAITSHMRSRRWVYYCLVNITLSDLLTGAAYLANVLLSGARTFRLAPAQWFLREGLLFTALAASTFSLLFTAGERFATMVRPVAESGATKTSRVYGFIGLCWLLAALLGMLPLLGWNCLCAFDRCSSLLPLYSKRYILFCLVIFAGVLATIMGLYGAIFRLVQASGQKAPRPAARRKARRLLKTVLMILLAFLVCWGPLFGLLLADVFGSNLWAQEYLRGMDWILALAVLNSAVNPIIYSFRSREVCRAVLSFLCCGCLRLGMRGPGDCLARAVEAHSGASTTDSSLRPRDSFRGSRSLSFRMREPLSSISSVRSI
Description: Intracellular Ca2+ release (FLIPR) agonist potency, S1P4. As to conditions: recombinant CHO-K1 cells expressing human S1PR4, aequorin, Gq/i5; Calcium 5 FLIPR; read-out: S1P4 EC50. How it is done:
as §1, §2, §3, §4

T1 sequence (P21453 whole entry): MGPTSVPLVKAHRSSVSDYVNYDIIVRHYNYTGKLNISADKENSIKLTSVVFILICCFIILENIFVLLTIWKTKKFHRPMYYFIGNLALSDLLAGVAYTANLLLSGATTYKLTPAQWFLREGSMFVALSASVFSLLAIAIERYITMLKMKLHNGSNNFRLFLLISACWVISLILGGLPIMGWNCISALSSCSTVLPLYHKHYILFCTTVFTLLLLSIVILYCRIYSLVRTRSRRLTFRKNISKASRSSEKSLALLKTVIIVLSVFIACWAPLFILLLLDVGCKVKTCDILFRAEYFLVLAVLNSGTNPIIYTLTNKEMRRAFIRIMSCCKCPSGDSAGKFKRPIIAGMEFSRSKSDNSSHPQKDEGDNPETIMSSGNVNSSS

For orientation: EC50 means the concentration giving half of the maximal effect. On to `O=C(O)C1CN(C2COc3cc(OCc4c(Cl)cccc4Cl)ccc3C2)C1` (single isomer, unassigned) [Compound 144, 1-(7-((2,6-dichlorobenzyl)oxy)chroman-3-yl)azetidine-3-carboxylic acid], for which the EC50 in experiment [1] is more than 1 µM; in experiment [2] it was 0.01 to 0.1 µM; in experiment [3], more than 1 µM.
Consider `O=C(O)C1CN(C2COc3cc(OCc4c(Cl)cccc4Cl)ccc3C2)C1` (single isomer, unassigned) [Compound 145, 1-(7-((2,6-dichlorobenzyl)oxy)chroman-3-yl)azetidine-3-carboxylic acid], for which the results for the EC50 in experiment [1], in experiment [2] and in experiment [3] were more than 1 µM, 0.1 to 1 µM and more than 1 µM, respectively.
With `CCc1cccc(F)c1COc1ccc2c(c1)OCC(N1CC(C(=O)O)C1)C2` (single isomer, unassigned) [Compound 146, 1-(7-((2-ethyl-6-fluorobenzyl)oxy)chroman-3-yl)azetidine-3-carboxylic acid], the values for the EC50 in experiment [1], in experiment [2] and in experiment [3] were more than 1 µM, less than 0.01 µM and less than 1 µM, respectively.
On the same counts, the results for `CCc1cccc(F)c1COc1ccc2c(c1)OCC(N1CC(C(=O)O)C1)C2` (single isomer, unassigned) [Compound 147, 1-(7-((2-ethyl-6-fluorobenzyl)oxy)chroman-3-yl)azetidine-3-carboxylic acid] are more than 1 µM, less than 0.01 µM and less than 1 µM.
As to `CCc1cccc(Cl)c1COc1ccc2c(c1)CCC(OCC(=O)O)C2` (single isomer, unassigned) [Compound 239], the EC50 in experiment [1] is more than 1 µM; in experiment [2], 0.1 to 1 µM; in experiment [3], more than 1 µM.
Consider `O=C(O)C1CN(C2COc3cc(OCc4cccc(F)c4F)ccc3C2)C1` (centres unmarked) [Compound 51, 1-(7-((2,3-difluorobenzyl)oxy)chroman-3-yl)azetidine-3-carboxylic acid], for which the EC50 in experiment [1] and in experiment [3] was more than 1 µM each time.
For `O=C(O)C1CN(C2COc3cc(OCc4c(F)cccc4F)ccc3C2)C1` (centres unmarked) [Compound 60, 1-(7-((2,6-difluorobenzyl)oxy)chroman-3-yl)azetidine-3-carboxylic acid], the EC50 in experiment [1] and in experiment [3] was more than 1 µM each time.
With `O=C(O)COC1CCc2cc(OCc3cc(Cl)ccc3C(F)(F)F)ccc2C1` (centres unmarked) [Compound 153, 2-[6-[[5-chloro-2-(trifluoromethyl)phenyl]methoxy]tetralin-2-yl]oxyacetic acid], the EC50 in experiment [1] was more than 1 µM.
Turning to `O=C(O)CCOC1CCc2cc(OCc3ccccc3C(F)(F)F)ccc2C1` (centres unmarked) [Compound 178, 3-[6-[[2-(trifluoromethyl)phenyl]methoxy]tetralin-2-yl]oxypropanoic acid], the figures for the EC50 in experiment [1] and in experiment [2] were more than 1 µM and 1 to 10 µM, respectively.
Regarding `O=C(O)CCOC1CCc2cc(OCc3cccc(Cl)c3)ccc2C1` (centres unmarked) [Compound 187, 3-[6-[(3-chlorophenyl)methoxy]tetralin-2-yl]oxypropanoic acid], the EC50 in experiment [1] and in experiment [3] was more than 1 µM throughout.
In the case of `O=C(O)CCOC1CCc2cc(OCc3cccc(C(F)(F)F)c3)ccc2C1` (centres unmarked) [Compound 193, 3-[6-[[3-(trifluoromethyl)phenyl]methoxy]tetralin-2-yl]oxypropanoic acid], the values for the EC50 in experiment [1] and in experiment [3] were more than 1 µM and less than 1 µM, respectively.
In the case of `Cc1ccccc1COc1ccc2c(c1)CCC(OCC(=O)O)C2` (centres unmarked) [Compound 197, 2-[6-(o-tolylmethoxy)tetralin-2-yl]oxyacetic acid], the figures for the EC50 in experiment [1] and in experiment [3] were more than 1 µM and less than 1 µM, respectively.
As to `O=C(O)COC1CCc2cc(OCc3ccc(C(F)(F)F)cc3)ccc2C1` (centres unmarked) [Compound 202, 2-[6-[[4-(trifluoromethyl)phenyl]methoxy]tetralin-2-yl]oxyacetic acid], the EC50 in experiment [1] and in experiment [3] was more than 1 µM each time.
For `O=C(O)COC1CCc2cc(OCc3ccccc3F)ccc2C1` (centres unmarked) [Compound 215, 2-[6-[(2-fluorophenyl)methoxy]tetralin-2-yl]oxyacetic acid], the results for the EC50 in experiment [1] and in experiment [2] were more than 1 µM and 1 to 10 µM, respectively.

For the origin of these results see patent US10280159B2 (AbbVie Deutschland GmbH & Co. KG, priority 2015, dated 2019).
